{
  "source": "ChEMBL document CHEMBL5725536",
  "about": "“Multiple kinase pathway inhibitors” (2017)",
  "key": {"[1]": {"target": "Proto-oncogene tyrosine-protein kinase Src (Homo sapiens, UniProt P12931)", "sequence (P12931 2-536 limits assumed)": "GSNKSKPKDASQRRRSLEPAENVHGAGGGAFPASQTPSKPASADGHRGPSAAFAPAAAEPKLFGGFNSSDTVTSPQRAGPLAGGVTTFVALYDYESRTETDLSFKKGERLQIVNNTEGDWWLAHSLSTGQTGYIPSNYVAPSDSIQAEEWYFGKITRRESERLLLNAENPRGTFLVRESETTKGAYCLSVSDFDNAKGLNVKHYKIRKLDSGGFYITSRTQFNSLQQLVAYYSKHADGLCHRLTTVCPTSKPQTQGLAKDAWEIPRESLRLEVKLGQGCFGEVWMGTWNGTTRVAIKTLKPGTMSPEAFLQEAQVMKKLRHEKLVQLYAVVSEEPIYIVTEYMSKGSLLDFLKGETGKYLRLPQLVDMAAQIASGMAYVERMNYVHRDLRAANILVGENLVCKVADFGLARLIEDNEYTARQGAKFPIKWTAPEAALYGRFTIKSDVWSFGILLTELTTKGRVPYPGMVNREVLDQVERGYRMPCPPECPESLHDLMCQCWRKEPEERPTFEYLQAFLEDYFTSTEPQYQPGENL", "assay": "(§1) Kinase Assays: A concentration of a drug that reduces the observed activity of an enzyme by 50%. An IC50 is not a true affinity constant and the specific value determined can vary depending on the particular assay used. Nonetheless the rank order of IC50 for a set of compounds will typically be similar from one assay to another. (The true affinity constant for an inhibitor binding to an enzyme, Ki, can of course also be used for the same purposes as described herein for IC50). With respect to the kinases that are targeted by the compounds disclosed herein, kinase activity can be assayed, without limitation, as consumption of ATP or as incorporation of phosphate into a substrate. For example, the assay used in Example 76 assesses consumption of ATP based on luminescent detection of ADP. As an alternate example, the assay used in Example 78 assesses incorporation of phosphate based on the radiologic detection of 33P-labeled artificial substrates. Myriad other kinase assays are known in the art many of which are commercially available either as a kit or a service and one of skill in the art will recognize their particular usefulness for generating IC50 data."}, "[2]": {"target": "Tyrosine-protein kinase Lyn (Homo sapiens, UniProt P07948)", "sequence (P07948 whole entry)": "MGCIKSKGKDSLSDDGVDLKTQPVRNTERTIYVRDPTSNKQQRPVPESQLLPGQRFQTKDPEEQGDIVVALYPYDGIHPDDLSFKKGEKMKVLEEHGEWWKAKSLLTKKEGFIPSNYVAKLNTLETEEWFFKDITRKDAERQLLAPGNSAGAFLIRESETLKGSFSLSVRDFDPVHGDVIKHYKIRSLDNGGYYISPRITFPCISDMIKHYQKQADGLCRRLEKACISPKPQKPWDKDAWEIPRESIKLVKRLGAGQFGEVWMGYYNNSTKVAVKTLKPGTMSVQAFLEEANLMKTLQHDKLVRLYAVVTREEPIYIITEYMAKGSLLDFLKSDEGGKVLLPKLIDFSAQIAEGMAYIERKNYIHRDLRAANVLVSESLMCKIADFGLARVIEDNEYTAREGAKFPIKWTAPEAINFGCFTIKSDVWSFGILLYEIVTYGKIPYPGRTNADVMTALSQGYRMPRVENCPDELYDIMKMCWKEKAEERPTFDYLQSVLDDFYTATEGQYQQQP", "assay": "as §1"}},
  "data": [
    {"smiles": "CC(C)n1c(=O)c(-c2c(F)cccc2F)cc2cnc(Nc3ccc(F)cn3)cc21", "values": [
      {"measurement": "IC50", "setting": "[1]", "value": "> 5", "unit": "µM"},
      {"measurement": "IC50", "setting": "[2]", "value": "> 5", "unit": "µM"}
    ]},
    {"smiles": "CCN(CC)CCOc1ccc(Nc2cc3c(cn2)cc(C(C)C)c(=O)n3C)nc1", "values": [
      {"measurement": "IC50", "setting": "[2]", "value": "> 5", "unit": "µM"}
    ]}
  ]
}
